Test results reported in ChEMBL document CHEMBL4308865, “Discovery of 4-alkoxy-6-methylpicolinamide negative allosteric modulators of metabotropic glutamate receptor subtype 5” (Bioorg Med Chem Lett, 2019).

Tests used:
[1] = biological target: T1, Metabotropic glutamate receptor 5 (Homo sapiens, UniProt P41594); experiment: Negative allosteric modulation of human mGlu5 receptor assessed as inhibition of glutamate induced-calcium mobilization relative to glutamate; type: functional
Target sequence in this assay (P41594 21-1212 limits assumed): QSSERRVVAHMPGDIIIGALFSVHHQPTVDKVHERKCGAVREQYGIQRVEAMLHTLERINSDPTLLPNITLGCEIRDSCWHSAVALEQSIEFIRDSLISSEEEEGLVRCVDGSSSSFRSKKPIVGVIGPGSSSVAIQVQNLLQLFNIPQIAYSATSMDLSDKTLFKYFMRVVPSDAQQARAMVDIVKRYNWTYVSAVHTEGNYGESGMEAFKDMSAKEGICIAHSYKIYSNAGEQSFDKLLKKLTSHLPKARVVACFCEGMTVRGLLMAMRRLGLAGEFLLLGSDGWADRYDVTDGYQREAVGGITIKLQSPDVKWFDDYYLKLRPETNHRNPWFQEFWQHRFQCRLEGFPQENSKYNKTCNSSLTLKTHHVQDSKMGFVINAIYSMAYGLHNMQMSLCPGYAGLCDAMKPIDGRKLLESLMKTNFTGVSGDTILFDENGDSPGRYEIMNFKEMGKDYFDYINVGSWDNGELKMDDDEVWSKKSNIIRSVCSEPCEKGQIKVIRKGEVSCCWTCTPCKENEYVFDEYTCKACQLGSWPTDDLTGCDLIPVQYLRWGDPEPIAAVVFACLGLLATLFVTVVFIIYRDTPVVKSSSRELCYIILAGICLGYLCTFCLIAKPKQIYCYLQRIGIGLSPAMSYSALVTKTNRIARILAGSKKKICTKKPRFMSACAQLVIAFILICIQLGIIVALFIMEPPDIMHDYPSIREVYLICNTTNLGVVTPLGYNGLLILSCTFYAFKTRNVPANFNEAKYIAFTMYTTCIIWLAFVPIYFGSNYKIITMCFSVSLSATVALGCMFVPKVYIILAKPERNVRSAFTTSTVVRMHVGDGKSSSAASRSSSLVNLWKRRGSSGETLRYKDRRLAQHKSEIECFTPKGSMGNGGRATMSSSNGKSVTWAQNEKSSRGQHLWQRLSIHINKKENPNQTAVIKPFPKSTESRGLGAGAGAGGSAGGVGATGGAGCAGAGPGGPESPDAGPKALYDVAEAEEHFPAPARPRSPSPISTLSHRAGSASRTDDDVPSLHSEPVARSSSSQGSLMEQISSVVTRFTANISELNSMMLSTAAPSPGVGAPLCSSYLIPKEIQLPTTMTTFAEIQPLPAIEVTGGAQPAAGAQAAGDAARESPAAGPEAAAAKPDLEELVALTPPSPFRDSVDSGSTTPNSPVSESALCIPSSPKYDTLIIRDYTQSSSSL

[2] = biological target: T1, Metabotropic glutamate receptor 5; experiment: Negative allosteric modulation of human mGlu5 receptor assessed as inhibition of glutamate induced-calcium mobilization; type: functional
Target sequence in this assay (P41594 whole entry): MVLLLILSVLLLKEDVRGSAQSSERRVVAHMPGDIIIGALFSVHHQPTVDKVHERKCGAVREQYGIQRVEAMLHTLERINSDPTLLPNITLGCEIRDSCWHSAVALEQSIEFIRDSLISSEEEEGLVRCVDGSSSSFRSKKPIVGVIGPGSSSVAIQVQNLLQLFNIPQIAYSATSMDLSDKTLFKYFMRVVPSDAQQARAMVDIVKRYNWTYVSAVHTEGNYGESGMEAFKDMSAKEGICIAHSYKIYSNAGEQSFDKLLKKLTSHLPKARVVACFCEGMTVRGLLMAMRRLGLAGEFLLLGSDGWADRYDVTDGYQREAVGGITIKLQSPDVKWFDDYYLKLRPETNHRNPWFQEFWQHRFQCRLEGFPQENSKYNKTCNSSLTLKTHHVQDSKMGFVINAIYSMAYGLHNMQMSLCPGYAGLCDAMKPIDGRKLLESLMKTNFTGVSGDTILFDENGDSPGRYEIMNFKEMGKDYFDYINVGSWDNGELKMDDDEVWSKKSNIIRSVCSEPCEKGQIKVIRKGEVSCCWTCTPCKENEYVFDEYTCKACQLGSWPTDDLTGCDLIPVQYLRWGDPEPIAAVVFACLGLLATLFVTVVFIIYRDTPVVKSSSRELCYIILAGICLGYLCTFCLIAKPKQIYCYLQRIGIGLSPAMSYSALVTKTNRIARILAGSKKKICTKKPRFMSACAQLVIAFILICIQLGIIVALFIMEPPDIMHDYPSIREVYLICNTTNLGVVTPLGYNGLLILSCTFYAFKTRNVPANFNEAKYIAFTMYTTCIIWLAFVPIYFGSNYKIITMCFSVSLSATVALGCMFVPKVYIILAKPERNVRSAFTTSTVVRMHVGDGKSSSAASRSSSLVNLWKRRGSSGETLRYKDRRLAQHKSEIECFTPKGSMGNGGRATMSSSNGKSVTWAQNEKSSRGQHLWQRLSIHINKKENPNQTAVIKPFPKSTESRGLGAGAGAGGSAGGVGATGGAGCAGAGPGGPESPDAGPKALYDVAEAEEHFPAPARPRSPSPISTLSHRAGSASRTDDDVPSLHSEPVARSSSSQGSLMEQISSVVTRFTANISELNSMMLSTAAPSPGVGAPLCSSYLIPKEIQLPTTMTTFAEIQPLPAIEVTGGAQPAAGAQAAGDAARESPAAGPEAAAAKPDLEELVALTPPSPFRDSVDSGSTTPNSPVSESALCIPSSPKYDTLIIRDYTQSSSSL

Cytochrome P450 3A4 = Cytochrome P450 3A4 (Homo sapiens, UniProt P08684); experiment: Inhibition of CYP3A4 (unknown origin); type: ADME
Sequence of Cytochrome P450 3A4 (P08684 whole entry): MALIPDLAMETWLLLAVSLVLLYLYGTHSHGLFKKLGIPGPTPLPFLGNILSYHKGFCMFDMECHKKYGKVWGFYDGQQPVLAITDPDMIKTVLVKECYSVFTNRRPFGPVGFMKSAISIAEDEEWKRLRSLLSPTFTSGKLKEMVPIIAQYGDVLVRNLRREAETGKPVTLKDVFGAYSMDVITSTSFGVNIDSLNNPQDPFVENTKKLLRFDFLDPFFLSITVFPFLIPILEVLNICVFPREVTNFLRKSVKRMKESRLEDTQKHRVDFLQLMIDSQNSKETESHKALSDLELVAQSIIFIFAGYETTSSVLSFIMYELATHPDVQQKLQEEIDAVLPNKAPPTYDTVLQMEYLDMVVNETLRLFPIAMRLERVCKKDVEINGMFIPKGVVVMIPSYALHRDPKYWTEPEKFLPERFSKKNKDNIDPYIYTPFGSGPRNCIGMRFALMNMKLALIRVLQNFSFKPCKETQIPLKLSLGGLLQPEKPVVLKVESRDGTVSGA

[3] = Unbound fraction in human plasma; type: ADME, cell-free
[4] = Volume of distribution at steady state in rat at 0.2 mg/kg, iv; type: ADME, organism-based; details: in vivo, read-out: Vdss
[5] = Half life in rat at 0.2 mg/kg, iv; type: ADME, organism-based; details: in vivo
Cytochrome P450 2D6 = Cytochrome P450 2D6 (Homo sapiens, UniProt P10635); experiment: Inhibition of CYP2D6 (unknown origin); type: ADME
Sequence of Cytochrome P450 2D6 (P10635 whole entry): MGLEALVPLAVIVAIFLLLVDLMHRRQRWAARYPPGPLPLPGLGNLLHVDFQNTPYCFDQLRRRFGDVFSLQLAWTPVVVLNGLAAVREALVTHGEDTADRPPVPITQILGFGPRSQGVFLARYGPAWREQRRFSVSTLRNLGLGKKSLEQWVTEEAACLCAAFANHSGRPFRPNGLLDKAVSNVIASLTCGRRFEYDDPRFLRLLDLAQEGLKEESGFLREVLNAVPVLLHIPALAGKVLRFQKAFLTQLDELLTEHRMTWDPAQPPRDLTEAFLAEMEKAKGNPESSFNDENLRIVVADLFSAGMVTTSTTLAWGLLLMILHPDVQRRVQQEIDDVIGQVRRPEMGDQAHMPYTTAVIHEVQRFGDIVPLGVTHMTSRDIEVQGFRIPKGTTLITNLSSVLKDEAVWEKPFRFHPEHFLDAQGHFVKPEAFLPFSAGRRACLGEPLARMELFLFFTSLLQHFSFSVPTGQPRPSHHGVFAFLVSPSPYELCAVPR

[6] = Unbound fraction in rat plasma; type: ADME, cell-free
[7] = Plasma clearance in rat at 0.2 mg/kg, iv; type: ADME, organism-based
Cytochrome P450 2C9 = Cytochrome P450 2C9 (Homo sapiens, UniProt P11712); experiment: Inhibition of CYP2C9 (unknown origin); type: ADME
Sequence of Cytochrome P450 2C9 (P11712 whole entry): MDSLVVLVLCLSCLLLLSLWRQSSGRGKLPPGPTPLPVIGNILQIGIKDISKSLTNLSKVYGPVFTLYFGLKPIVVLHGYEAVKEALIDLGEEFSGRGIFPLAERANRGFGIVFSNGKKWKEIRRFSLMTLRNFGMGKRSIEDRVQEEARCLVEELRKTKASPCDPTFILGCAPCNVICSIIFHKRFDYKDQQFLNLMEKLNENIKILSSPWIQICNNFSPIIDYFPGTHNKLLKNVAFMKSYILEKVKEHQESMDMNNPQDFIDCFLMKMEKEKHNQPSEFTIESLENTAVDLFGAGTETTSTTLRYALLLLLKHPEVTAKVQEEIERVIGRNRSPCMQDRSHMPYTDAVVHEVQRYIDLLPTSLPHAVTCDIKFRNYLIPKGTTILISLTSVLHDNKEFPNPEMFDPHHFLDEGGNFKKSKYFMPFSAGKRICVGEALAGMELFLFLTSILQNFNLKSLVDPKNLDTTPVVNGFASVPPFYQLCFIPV

Cytochrome P450 1A2 = biological target: T2, Cytochrome P450 1A2 (Homo sapiens, UniProt P05177); experiment: Inhibition of CYP1A2 (unknown origin); type: ADME
T2 sequence (P05177 whole entry): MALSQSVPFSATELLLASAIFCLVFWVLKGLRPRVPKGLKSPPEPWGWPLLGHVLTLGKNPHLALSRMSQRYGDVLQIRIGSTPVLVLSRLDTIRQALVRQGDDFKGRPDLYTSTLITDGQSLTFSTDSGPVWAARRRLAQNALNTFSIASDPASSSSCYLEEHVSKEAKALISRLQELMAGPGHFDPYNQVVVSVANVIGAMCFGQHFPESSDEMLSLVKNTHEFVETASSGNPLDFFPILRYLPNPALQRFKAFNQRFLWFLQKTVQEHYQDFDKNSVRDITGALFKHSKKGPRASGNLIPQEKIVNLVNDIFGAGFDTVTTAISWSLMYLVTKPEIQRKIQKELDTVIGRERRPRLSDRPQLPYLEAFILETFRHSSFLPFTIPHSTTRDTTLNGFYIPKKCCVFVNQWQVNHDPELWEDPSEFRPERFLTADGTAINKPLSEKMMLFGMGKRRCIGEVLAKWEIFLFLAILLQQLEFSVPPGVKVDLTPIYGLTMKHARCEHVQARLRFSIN

[8] = Brain to plasma partition coefficient, Kp in rat; type: ADME, organism-based
[9] = Drug metabolism in dog S9 fraction assessed as NADPH-dependent oxidation of furanyl moiety; type: ADME, subcellular, Canis lupus familiaris
[10] = Drug metabolism in rat S9 fraction assessed as NADPH-dependent oxidation of furanyl moiety; type: ADME, subcellular
[11] = Drug metabolism in human S9 fraction assessed as NADPH-dependent oxidation of furanyl moiety; type: ADME, subcellular

Efficacy [1] | IC50 [2] | SMILES | further results
1.4% | 0.389 µM | Cc1cc(O[C@@H]2CO[C@H](C)C2)cc(C(=O)Nc2ccc(F)cn2)n1 | 
1.7% | 0.038 µM | Cc1cc(O[C@@H]2CCOC2)cc(C(=O)Nc2ccc(F)cn2)n1 | INH (Cytochrome P450 3A4): > 30 µM; Fu [3]: 0.07; Vd [4]: 5.5 L/kg; half-life [5]: 46 min; INH (Cytochrome P450 2D6): > 30 µM; Fu [6]: 0.26; clearance [7]: 8.16 L/h/kg; INH (Cytochrome P450 2C9): > 30 µM; INH (Cytochrome P450 1A2): > 30 µM
2.1% | 0.112 µM | Cc1cc(O[C@@H]2CO[C@H](C)C2)cc(C(=O)Nc2nc(C)cs2)n1 | 
1% | 0.657 µM | Cc1cc(O[C@H]2CCOC2)cc(C(=O)Nc2ccc(F)cn2)n1 | 
1.5% | 0.149 µM | Cc1cc(OC2CCCC2)cc(C(=O)Nc2nc(C)cs2)n1 | 
1.1% | 0.18 µM | Cc1cc(O[C@H]2CO[C@H](C)C2)cc(C(=O)Nc2nc(CF)cs2)n1 | 
1.7% | 0.023 µM | Cc1cc(O[C@@H]2CCOC2)cc(C(=O)Nc2ccccn2)n1 | 
-1.1% | 2.48 µM | Cc1cc(OCC2CCO2)cc(C(=O)Nc2ccc(F)cn2)n1 (stereo unspecified) | 
1.9% | 0.103 µM | COCOc1cc(C)nc(C(=O)Nc2nc(C)cs2)c1 | 
-0.9% | 2.33 µM | Cc1cc(OCC2CCCO2)cc(C(=O)Nc2ccc(F)cn2)n1 (stereo unspecified) | 
0.8% | 0.725 µM | Cc1cc(OCC2CCCO2)cc(C(=O)Nc2ccccn2)n1 (stereo unspecified) | 
2.6% | 2.04 µM | Cc1cc(O[C@@H]2CO[C@@H](C)C2)cc(C(=O)Nc2ccc(F)cn2)n1 | 
0.9% | 1.56 µM | Cc1cc(OC2CCOCC2)cc(C(=O)Nc2ccccn2)n1 | 
 | 0.145 µM | Cc1cc(OC2C[S+]([O-])C2)cc(C(=O)Nc2nc(C)cs2)n1 (stereo unspecified) | 
 | 1.05 µM | CO[C@@H](C)COc1cc(C)nc(C(=O)Nc2nc(C)cs2)c1 | 
1.7% | 0.395 µM | Cc1cc(O[C@@H]2CO[C@@H](C)C2)cc(C(=O)Nc2nc(C)cs2)n1 | 
1.5% | 0.273 µM | Cc1cc(OCC2CCCO2)cc(C(=O)Nc2nc(C)cs2)n1 (stereo unspecified) | 
 | 0.145 µM | CO[C@H](C)COc1cc(C)nc(C(=O)Nc2nc(C)cs2)c1 | Fu [3]: 0.07; Fu [6]: 0.09
2.1% | 0.182 µM | Cc1cc(OC2CCCC2)cc(C(=O)Nc2ccccn2)n1 | 
1.2% | 0.399 µM | Cc1cc(OCC2CCO2)cc(C(=O)Nc2nc(C)cs2)n1 (stereo unspecified) | 
1.1% | 0.12 µM | COCOc1cc(C)nc(C(=O)Nc2ccccn2)c1 | 

Efficacy [1] | IC50 [2] | SMILES | further results
0.8% | 0.392 µM | Cc1cc(OCC2COC2)cc(C(=O)Nc2ccccn2)n1 | 
-0.2% | 1.96 µM | Cc1cc(OC2CCOCC2)cc(C(=O)Nc2ccc(F)cn2)n1 | 
0.2% | 0.497 µM | Cc1cc(OC2CCCOC2)cc(C(=O)Nc2ccc(F)cn2)n1 (stereo unspecified) | 
1.6% | 0.902 µM | Cc1cc(O[C@H]2CO[C@H](C)C2)cc(C(=O)Nc2nc(C(F)F)cs2)n1 | 
1.4% | 0.107 µM | Cc1cc(O[C@H]2CCOC2)cc(C(=O)Nc2nc(C)cs2)n1 | 
1.1% | 0.21 µM | Cc1cc(OCC2CCOC2)cc(C(=O)Nc2ccccn2)n1 (stereo unspecified) | 
0.5% | 0.646 µM | Cc1cc(OCC2CCO2)cc(C(=O)Nc2ccccn2)n1 (stereo unspecified) | 
 | 0.392 µM | Cc1cc(OC2CS(=O)(=O)C2)cc(C(=O)Nc2nc(C)cs2)n1 | 
-3.4% | 4.3 µM | Cc1cc(OCC2COC2)cc(C(=O)Nc2ccc(F)cn2)n1 | 
1.6% | 0.182 µM | Cc1cc(OC2CCC2)cc(C(=O)Nc2ccc(F)cn2)n1 | 
1.5% | 0.058 µM | Cc1cc(OC2CCC2)cc(C(=O)Nc2nc(C)cs2)n1 | 
1.2% | 0.081 µM | Cc1cc(O[C@H]2CO[C@H](C)C2)cc(C(=O)Nc2nc(C)cs2)n1 | Kp [8]: 2.2; fraction unbound [3]: 0.05; fraction unbound [6]: 0.1
1.3% | 0.175 µM | Cc1cc(O[C@H]2CO[C@H](C)C2)cc(C(=O)Nc2ccc(F)cn2)n1 | 
1.5% | 0.134 µM | Cc1cc(OCC2COC2)cc(C(=O)Nc2nc(C)cs2)n1 | 
1.3% | 0.066 µM | Cc1cc(OC2COC2)cc(C(=O)Nc2ccccn2)n1 | 
 | 1.03 µM | COC[C@@H](C)Oc1cc(C)nc(C(=O)Nc2nc(C)cs2)c1 | 
0.7% | 0.446 µM | Cc1cc(OC2CCOCC2)cc(C(=O)Nc2nc(C)cs2)n1 | 
1.9% | 4.47 µM | Cc1cc(O[C@H]2CO[C@@H](C)C2)cc(C(=O)Nc2ccc(F)cn2)n1 | 
 | 0.077 µM | Cc1cc(OC2CCSC2)cc(C(=O)Nc2nc(C)cs2)n1 (stereo unspecified) | 
1.1% | 0.2 µM | Cc1cc(OCC2CCOC2)cc(C(=O)Nc2nc(C)cs2)n1 (stereo unspecified) | 
1.3% | 0.194 µM | Cc1cc(O[C@H]2CCOC2)cc(C(=O)Nc2ccccn2)n1 | 

Efficacy [1] | IC50 [2] | SMILES | further results
1.1% | 0.228 µM | Cc1cc(OC2COC2)cc(C(=O)Nc2ccc(F)cn2)n1 | INH (Cytochrome P450 3A4): > 30 µM; Fu [3]: 0.16; Vd [4]: 4.5 L/kg; half-life [5]: 28 min; INH (Cytochrome P450 2D6): > 30 µM; Fu [6]: 0.16; clearance [7]: 10.7 L/h/kg; INH (Cytochrome P450 2C9): > 30 µM; INH (Cytochrome P450 1A2): 5.8 µM
0.9% | 0.14 µM | Cc1cc(OC2CCCOC2)cc(C(=O)Nc2nc(C)cs2)n1 (stereo unspecified) | 
0.5% | 0.051 µM | Cc1cc(OC2COC2)cc(C(=O)Nc2nc(C)cs2)n1 | 
1.5% | 0.043 µM | Cc1cc(OC2CCC2)cc(C(=O)Nc2ccccn2)n1 | 
1% | 0.7 µM | Cc1cc(OCC2CCOC2)cc(C(=O)Nc2ccc(F)cn2)n1 (stereo unspecified) | 
 | 0.031 µM | Cc1cc(OC2CSC2)cc(C(=O)Nc2nc(C)cs2)n1 | 
 | 0.932 µM | COC[C@H](C)Oc1cc(C)nc(C(=O)Nc2nc(C)cs2)c1 | 
 | 0.388 µM | CC(=O)N1CC(Oc2cc(C)nc(C(=O)Nc3nc(C)cs3)c2)C1 | 
2.7% | 5.2 µM | Cc1cc(O[C@H]2CO[C@H](C)C2)cc(C(=O)Nc2nc(C(F)(F)F)cs2)n1 | 
 | 0.504 µM | Cc1cc(OC2CN(S(C)(=O)=O)C2)cc(C(=O)Nc2nc(C)cs2)n1 | 
10.4% | 3.35 µM | Cc1cc(OC2CCCCC2)cc(C(=O)Nc2ccc(F)cn2)n1 | 
5.5% | 7.2 µM | COc1cc(C)nc(C(=O)Nc2ccc(F)cn2)c1 | 
1.3% | 0.899 µM | Cc1cc(O[C@H]2CO[C@H](C)C2)cc(C(=O)Nc2nc(C3CC3)cs2)n1 | 
0.1% | 0.694 µM | COCOc1cc(C)nc(C(=O)Nc2ccc(F)cn2)c1 | 
0.7% | 0.224 µM | Cc1cc(OC2CCCOC2)cc(C(=O)Nc2ccccn2)n1 (stereo unspecified) | 
1.3% | 0.028 µM | Cc1cc(O[C@@H]2CCOC2)cc(C(=O)Nc2nc(C)cs2)n1 | INH (Cytochrome P450 3A4): 30 µM; Drug metabolism [9]: Metabolite_Detected; Drug metabolism [10]: Metabolite_Detected; Fu [3]: 0.08; Vd [4]: 2.7 L/kg; half-life [5]: 63 min; INH (Cytochrome P450 2D6): > 30 µM; fraction unbound [6]: 0.11; clearance [7]: 2.04 L/h/kg; Drug metabolism [11]: Metabolite_Detected; INH (Cytochrome P450 2C9): > 30 µM; INH (Cytochrome P450 1A2): 0.3 µM
3.8% | 1.29 µM | Cc1cc(O[C@H]2CO[C@H](C)C2)cc(C(=O)Nc2nc(C)c(F)s2)n1 | 
1.9% | 2.1 µM | Cc1cc(OC2CCCCC2)cc(C(=O)Nc2nc(C)cs2)n1 | 
-0.7% | 3.66 µM | Cc1cc(OC2CCCC2)cc(C(=O)Nc2ccc(F)cn2)n1 | 
1.1% | 0.684 µM | Cc1cc(O[C@H]2CO[C@@H](C)C2)cc(C(=O)Nc2nc(C)cs2)n1 | 
2.1% | 1.42 µM | Cc1cc(OC2CCCCC2)cc(C(=O)Nc2ccccn2)n1 | 
